Calls of active or inactive are those of the source. The rule behind the calls is not given here.
Experiments:
[1] = target: T1, Peroxisome proliferator-activated receptor gamma (Homo sapiens) (UniProt P37231); assay: Agonist activity at PPARgamma (unknown origin) expressed in HEK293 cells assessed as receptor transactivation at 10 uM incubated for 24 hrs by luciferase reporter gene assay; type: cell-based
T1 sequence (whole entry): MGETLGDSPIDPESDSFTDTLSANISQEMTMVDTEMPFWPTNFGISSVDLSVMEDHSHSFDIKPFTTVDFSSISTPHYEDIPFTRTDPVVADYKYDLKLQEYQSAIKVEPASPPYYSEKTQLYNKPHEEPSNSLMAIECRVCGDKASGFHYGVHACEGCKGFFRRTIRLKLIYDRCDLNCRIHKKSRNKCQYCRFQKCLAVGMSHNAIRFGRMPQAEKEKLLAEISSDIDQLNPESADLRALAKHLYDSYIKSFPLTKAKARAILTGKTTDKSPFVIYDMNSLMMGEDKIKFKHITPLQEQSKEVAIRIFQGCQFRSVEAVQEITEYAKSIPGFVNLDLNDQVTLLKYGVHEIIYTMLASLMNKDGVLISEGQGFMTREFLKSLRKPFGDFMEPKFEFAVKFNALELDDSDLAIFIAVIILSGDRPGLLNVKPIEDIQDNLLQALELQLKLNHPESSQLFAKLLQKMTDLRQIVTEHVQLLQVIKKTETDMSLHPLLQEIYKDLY

Rattus norvegicus [2] = assay: Antidiabetic activity in Wistar rat assessed as reduction in blood glucose level at 30 mg/kg, po dosed 30 mins before glucose challenge and measured 30 and 60 mins post glucose challenge by OGTT method; type: functional, organism-based
3T3-L1 = assay: Increase in PPARgamma mRNA expression in mouse 3T3L1 cells at 10 uM incubated for 24 hrs by RT-PCR method; type: functional
Rattus norvegicus [3] = assay: Antidiabetic activity in STZ-induced diabetic Wistar rat model assessed as reduction in blood glucose level at 30 mg/kg, po repeated for 15 days by GOD-POD method; type: functional, organism-based
Rattus norvegicus [4] = assay: Toxicity in STZ-induced diabetic Wistar rat model assessed as increase in body weight at 30 mg/kg, po repeated for 15 days […]; type: organism-based; settings: in vivo, 360 h
Rattus norvegicus [5] = assay: Antidiabetic activity in STZ-induced diabetic Wistar rat model assessed as reduction in blood glucose level at 36 mg/kg, po repeated for 15 days by GOD-POD method; type: functional, organism-based
Rattus norvegicus [6] = assay: Antidiabetic activity in Wistar rat assessed as reduction in blood glucose level at 36 mg/kg, po dosed 30 mins before glucose challenge and measured 30 and 60 mins post glucose challenge by OGTT method; type: functional, organism-based
Rattus norvegicus [7] = assay: Toxicity in STZ-induced diabetic Wistar rat model assessed as increase in body weight at 36 mg/kg, po repeated for 15 days […]; type: organism-based; settings: in vivo, 360 h

Row | Structure (SMILES) | Activity [1] | Activity (Rattus norvegicus [2]) | fold change (FC) (3T3-L1) | Activity (Rattus norvegicus [3]) | Activity (Rattus norvegicus [4]) | Activity (Rattus norvegicus [5]) | Activity (Rattus norvegicus [6]) | Activity (Rattus norvegicus [7])
1 | Cc1ccccc1NC(=O)NS(=O)(=O)c1ccc(N2N=C(c3cc4ccccc4oc3=O)CC2c2ccc(N(C)C)cc2)cc1 (stereo not given) | Active | Active | 1.13 | Active | Non-toxic |  |  | 
2 | CN(CCOc1ccc(CC2SC(=O)NC2=O)cc1)c1ccccn1 (stereo not given) [ROSIGLITAZONE] | Active |  | 1.52 |  |  | Active | Active | Toxic
3 | COc1ccc(NC(=O)NS(=O)(=O)c2ccc(N3N=C(c4ccco4)CC3c3ccc(N(C)C)cc3)cc2)cc1 (stereo not given) |  | Active |  |  |  |  |  | 
4 | COc1ccc(NC(=S)NS(=O)(=O)c2ccc(N3N=C(c4ccco4)CC3c3ccc(N(C)C)cc3)cc2)cc1 (stereo not given) |  | Active |  |  |  |  |  | 
5 | Cc1ccccc1NC(=O)NS(=O)(=O)c1ccc(N2N=C(c3ccco3)CC2c2ccc(N(C)C)cc2)cc1 (stereo not given) | Active | Active |  | Active | Non-toxic |  |  | 
6 | CN(C)c1ccc(C2CC(c3ccco3)=NN2c2ccc(S(=O)(=O)NC(=O)NCc3ccccc3)cc2)cc1 (stereo not given) | Active | Active |  | Active | Non-toxic |  |  | 
7 | COc1ccc(C2CC(c3ccco3)=NN2c2ccc(S(=O)(=O)NC(=O)Nc3ccccc3C)cc2)cc1 (stereo not given) |  | Active |  |  |  |  |  | 
8 | COc1ccc(C2CC(c3cc4ccccc4oc3=O)=NN2c2ccc(S(=O)(=O)NC(=S)NCc3ccccc3)cc2)cc1 (stereo not given) | Active | Active |  | Active | Non-toxic |  |  | 
9 | COc1ccc(Cl)cc1C(=O)NCCc1ccc(S(=O)(=O)NC(=O)NC2CCCCC2)cc1 [GLYBURIDE] | Active | Active | 1.01 | Active | Toxic |  |  | 

Source: ChEMBL document CHEMBL3621178, “Antidiabetic effect of novel benzenesulfonylureas as PPAR-γ agonists and their anticancer effect” (Bioorg Med Chem Lett, 2015)
